# Reference: PubChem BioAssay AID1259407 (Chemical Carcinogenesis Research Information System (CCRIS), 2018)
# The source made the active and inactive calls. How the calls were made is not given here.
# Test system: CCRIS mutagenicity, Ames/micronucleus/aberration tests
# Experiment: CCRIS mutagenicity studies
# [1] = Test System: AMES SALMONELLA TYPHIMURIUM, Strain/Indicator: TA98, Metabolic Activation: NONE, Method: STANDARD PLATE
# [2] = Test System: AMES SALMONELLA TYPHIMURIUM, Strain/Indicator: TA98, Metabolic Activation: NONE
# [3] = Test System: AMES SALMONELLA TYPHIMURIUM, Strain/Indicator: TA100, Metabolic Activation: NONE
smiles,measurement,setting,value
C[C@]1(O)CC[C@H]2[C@@H]3CCC4=CC(=O)CC[C@]4(C)[C@@]3(F)[C@@H](O)C[C@@]21C,mutagenic call,"End Point: IN VITRO CHROMOSOMAL ABERRATIONS, Test System: HUMAN PERIPHERAL LYMPHOCYTES, Metabolic Activation: NONE",active; positive after 72 hr treatment at 2 lower doses; positive after 48 or 72 hr trea
same,mutagenic call,"End Point: IN VIVO MICRONUCLEUS, Test System: BONE MARROW POLYCHROMATIC ERYTHROCYTES, Species: MOUSE, Strain/Sex: SWISS ALBINO/MALE, Route: IP",active; positive
same,mutagenic call,"Test System: AMES SALMONELLA TYPHIMURIUM, Strain/Indicator: TA97A, Metabolic Activation: NONE, Method: STANDARD PLATE",inactive; negative; growth inhibition at highest dose
same,mutagenic call,"Test System: AMES SALMONELLA TYPHIMURIUM, Strain/Indicator: TA97A, Metabolic Activation: RAT, LIVER, S-9, PHENOBARBITAL, Method: PREINCUBATION",inactive; negative
same,mutagenic call,[1],inactive; negative; growth inhibition at highest dose
same,mutagenic call,"Test System: AMES SALMONELLA TYPHIMURIUM, Strain/Indicator: TA98, Metabolic Activation: RAT, LIVER, S-9, PHENOBARBITAL, Method: PREINCUBATION",inactive; negative
same,mutagenic call,"Test System: AMES SALMONELLA TYPHIMURIUM, Strain/Indicator: TA100, Metabolic Activation: NONE, Method: STANDARD PLATE",inactive; negative; growth inhibition at highest dose
same,mutagenic call,"Test System: AMES SALMONELLA TYPHIMURIUM, Strain/Indicator: TA100, Metabolic Activation: RAT, LIVER, S-9, PHENOBARBITAL, Method: PREINCUBATION",inactive; negative
same,mutagenic call,"Test System: AMES SALMONELLA TYPHIMURIUM, Strain/Indicator: TA102, Metabolic Activation: NONE, Method: STANDARD PLATE",inactive; negative; growth inhibition at highest dose
same,mutagenic call,"Test System: AMES SALMONELLA TYPHIMURIUM, Strain/Indicator: TA102, Metabolic Activation: RAT, LIVER, S-9, PHENOBARBITAL, Method: PREINCUBATION",inactive; negative
same,mutagenic call,"Test System: AMES SALMONELLA TYPHIMURIUM, Strain/Indicator: TA1535, Metabolic Activation: NONE, Method: STANDARD PLATE",inactive; negative; growth inhibition at highest dose
same,mutagenic call,"Test System: AMES SALMONELLA TYPHIMURIUM, Strain/Indicator: TA1535, Metabolic Activation: RAT, LIVER, S-9, PHENOBARBITAL, Method: PREINCUBATION",inactive; negative
C/C=C(\Cl)C1=CC(=O)[C@]23C[C@H]2C(C)(C)O[C@]3(O)C1=O,mutagenic call,"Test System: AMES SALMONELLA TYPHIMURIUM, Strain/Indicator: TA97, Metabolic Activation: NONE",inactive; negative
same,mutagenic call,[2],inactive; negative
same,mutagenic call,[3],inactive; negative
same,mutagenic call,"Test System: AMES SALMONELLA TYPHIMURIUM, Strain/Indicator: TA102, Metabolic Activation: NONE",active; positive
CC(=O)N(O)c1ccc([N+](=O)[O-])cc1,mutagenic call,"Test System: AMES SALMONELLA TYPHIMURIUM, Strain/Indicator: TA98(NR), Metabolic Activation: NONE, Method: STANDARD PLATE",inactive; negative
same,mutagenic call,"Test System: AMES SALMONELLA TYPHIMURIUM, Strain/Indicator: TA98(NR), Metabolic Activation: RAT, LIVER, S-9, AROCLOR 1254, Method: STANDARD PLATE",inactive; negative
same,mutagenic call,[1],active; positive
same,mutagenic call,"Test System: AMES SALMONELLA TYPHIMURIUM, Strain/Indicator: TA98, Metabolic Activation: RAT, LIVER, S-9, AROCLOR 1254, Method: STANDARD PLATE",active; positive
same,mutagenic call,"Test System: AMES SALMONELLA TYPHIMURIUM, Strain/Indicator: TA1538(NR), Metabolic Activation: NONE, Method: STANDARD PLATE",inactive; negative
same,mutagenic call,"Test System: AMES SALMONELLA TYPHIMURIUM, Strain/Indicator: TA1538(NR), Metabolic Activation: RAT, LIVER, S-9, AROCLOR 1254, Method: STANDARD PLATE",inactive; negative
same,mutagenic call,"Test System: AMES SALMONELLA TYPHIMURIUM, Strain/Indicator: TA1538, Metabolic Activation: NONE, Method: STANDARD PLATE",active; positive
same,mutagenic call,"Test System: AMES SALMONELLA TYPHIMURIUM, Strain/Indicator: TA1538, Metabolic Activation: RAT, LIVER, S-9, AROCLOR 1254, Method: STANDARD PLATE",active; positive
O=C1CCCc2cc3c(cc21)cc([N+](=O)[O-])c1ccccc13,mutagenic call,"Test System: AMES SALMONELLA TYPHIMURIUM, Strain/Indicator: TA98-1,8-DNP6, Metabolic Activation: NONE",active; positive
same,mutagenic call,"Test System: AMES SALMONELLA TYPHIMURIUM, Strain/Indicator: TA98-1,8-DNP6, Metabolic Activation: S-9",inactive; negative
same,mutagenic call,[2],active; positive
same,mutagenic call,"Test System: AMES SALMONELLA TYPHIMURIUM, Strain/Indicator: TA98, Metabolic Activation: S-9",active; positive
same,mutagenic call,"Test System: AMES SALMONELLA TYPHIMURIUM, Strain/Indicator: TA98NR, Metabolic Activation: NONE",active; positive
same,mutagenic call,"Test System: AMES SALMONELLA TYPHIMURIUM, Strain/Indicator: TA98NR, Metabolic Activation: S-9",active; positive
same,mutagenic call,[3],active; positive
same,mutagenic call,"Test System: AMES SALMONELLA TYPHIMURIUM, Strain/Indicator: TA100, Metabolic Activation: S-9",active; positive
same,mutagenic call,"Test System: AMES SALMONELLA TYPHIMURIUM, Strain/Indicator: TA100NR, Metabolic Activation: NONE",active; positive
same,mutagenic call,"Test System: AMES SALMONELLA TYPHIMURIUM, Strain/Indicator: TA100NR, Metabolic Activation: S-9",active; positive
COc1nsc2cc([N+](=O)[O-])ccc12,mutagenic call,[1],active; positive
